Reference: US5135931A, “Pyridinylpiperazine derivatives” (Akzo N.V., priority 1990, dated 1992)
Where a name gives a salt, the structure may show the parent alone.

Tests used:
[1] = target: T1, 5-HT1A (serotonin 1A) receptors (Homo sapiens, UniProt P08908); assay: serotonin binding activity, 5-HT1A; conditions: average test results; read-out: pKi 5-HT1A (converted)
T1 sequence (P08908 1-422): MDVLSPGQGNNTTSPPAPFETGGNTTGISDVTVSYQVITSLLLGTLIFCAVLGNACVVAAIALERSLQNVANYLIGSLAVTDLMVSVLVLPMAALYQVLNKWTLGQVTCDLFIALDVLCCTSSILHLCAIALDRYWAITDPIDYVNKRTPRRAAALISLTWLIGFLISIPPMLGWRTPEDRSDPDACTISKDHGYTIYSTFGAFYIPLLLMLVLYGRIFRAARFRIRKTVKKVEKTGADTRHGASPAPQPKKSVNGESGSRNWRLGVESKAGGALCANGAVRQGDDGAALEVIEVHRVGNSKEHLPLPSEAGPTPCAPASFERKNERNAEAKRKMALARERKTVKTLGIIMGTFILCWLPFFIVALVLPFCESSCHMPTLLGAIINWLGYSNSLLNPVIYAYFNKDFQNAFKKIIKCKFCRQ
Procedure: (§1) The various compounds of Examples I-VIII were analyzed for serotonin binding activity.

[2] = target: 5-HT1B (serotonin 1B) receptor (Rattus norvegicus, UniProt P28564); assay: serotonin binding activity, 5-HT1B; conditions: average test results; read-out: pKi 5-HT1B (converted)
Procedure: as §1

5-HT1B (serotonin 1B) receptor, sequence (P28564 whole entry): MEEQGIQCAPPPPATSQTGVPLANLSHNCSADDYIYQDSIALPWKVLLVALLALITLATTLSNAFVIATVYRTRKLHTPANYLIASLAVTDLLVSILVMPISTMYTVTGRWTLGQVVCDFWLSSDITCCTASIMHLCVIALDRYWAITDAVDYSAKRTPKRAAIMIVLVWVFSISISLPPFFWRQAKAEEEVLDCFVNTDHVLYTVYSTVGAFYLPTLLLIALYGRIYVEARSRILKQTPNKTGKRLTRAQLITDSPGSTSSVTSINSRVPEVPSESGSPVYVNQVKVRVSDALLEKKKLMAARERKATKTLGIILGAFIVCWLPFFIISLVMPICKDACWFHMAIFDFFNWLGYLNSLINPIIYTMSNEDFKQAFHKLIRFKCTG

Compound | Ki [1] [µM] | Ki [2] [µM]
O=C(NCCN1CCN(c2cccc(C(F)(F)F)n2)CC1)c1ccc(F)cc1 [Example I, 4-fluoro-N-[2-[4-[6-(trifluoromethyl)-2-pyridinyl]-1-piperazinyl]ethyl]benzamide (E)-2-butenedioate (1:1) salt] | 0.00158 | > 10
O=C(NCCN1CCN(c2cc(C(F)(F)F)ccn2)CC1)c1ccc(F)cc1 [III, 4-fluoro-N-[2-[4-[4-(trifluoromethyl) -2-pyridinyl]-1-piperazinyl]ethyl]benzamide (E)-2-butenedioate (1:1) salt] | 0.02 | 10
CN(CCN1CCN(c2cccc(C(F)(F)F)n2)CC1)C(=O)c1ccc(F)cc1 [VII, 4-fluoro-N-[2-[4-(6-(trifluoromethyl)-2-pyridinyl)-1-piperazinyl]ethyl]-N-methylbenzamide] | 0.0316 | > 10
CN(CCCN1CCN(c2cccc(C(F)(F)F)n2)CC1)C(=O)c1ccc(F)cc1 [VIII, 4-fluoro-N-[3-[4-(6-(trifluoromethyl)-2-pyridinyl)-1-piperazinyl]propyl]-N-methylbenzamide] | 0.0631 | > 10

The next lines start with the values.

Ki [1] [µM] | Ki [2] [µM] | Compound
0.00794 | 0.501 | O=C(NCCCCN1CCN(c2cccc(C(F)(F)F)n2)CC1)c1ccc(F)cc1 [Example IV, 4-fluoro-N-[4-[4-[6-(trifluoromethyl) -2-pyridinyl]-1-piperazinyl]butyl]benzamide (E)-2-butenedioate (2:1) salt]
0.001 | 10 | O=C(NCCN1CCN(c2cccc(C(F)(F)F)n2)CC1)c1ccccc1 [II, N-[2-[4-[6-(trifluoromethyl)-2-pyridinyl]-1-piperazinyl]ethyl]benzamide (E)-2-butenedioate (1:1) salt]
0.00631 | 1 | O=C(NCCCCN1CCN(c2cccc(C(F)(F)F)n2)CC1)c1ccccc1 [V, N-[4-[4-[6-(trifluoromethyl)-2-pyridinyl]-1-piperazinyl]butyl]benzamide (E)-2-butenedioate (2:1) salt]
0.0501 | 5.01 | O=C(NCCN1CCN(c2cccc(C(F)(F)F)n2)CC1)c1cccnc1 [VI]
